pIC50: −log10 of the molar value.
Legend:
Assay type in all cases: cell-based
[1] = test system: GTL-16; assay: Cell proliferation assay, GTL-16 (gastric); conditions: Homo sapiens, 72 hours in presence of compound
Description: (§1) Seventeen cancer derived cell lines are used (GTL-16, N87, H1975, A549, H69, A2780, PC3, BT474, SKBR3, MCF-7, A375, MV4;11, K562, KM12L4A, H929, OPM-2 and KMS-11) to test the effect of (R)-2-amino-7-[2-(6-methoxy-pyridin-2-yl)-phenyl]-4-methyl-7,8-dihydro-6H-pyrido[4,3-d]pyrimidin-5-one. These cell lines cover the following 9 tumor types: Gastric, Lung, Ovarian, Prostate, Breast, Melanoma, Leukemia, Colon and Multiple myeloma. After division and medium change, cells from stock culture are seeded on cell plates and cultured for about 18 hours to allow cell growth and attachment before starting the assay. Then on the first day of the assay, (R)-2-amino-7-[2-(6-methoxy-pyridin-2-yl)-phenyl]-4-methyl-7,8-dihydro-6H-pyrido[4,3-d]pyrimidin-5-one is added to the medium at various concentrations. Cells are cultured up to 72 or 96 hours and cell proliferation is determined using commercially available cell proliferation kits.
(§2) Table 1 relates to the concentration in nM of (R)-2-amino-7-[2-(6-methoxy-pyridin-2-yl)-phenyl]-4-methyl-7,8-dihydro-6H-pyrido[4,3-d]pyrimidin-5-one which inhibits cell proliferation by 50% (IC50). […]

[2] = test system: N87; assay: Cell proliferation assay, N87 (gastric); conditions: 72 hours in presence of compound
Description: as §1, §2

[3] = test system: BT474; assay: Cell proliferation assay, BT474 (breast); conditions: Homo sapiens, BT-474, 72 hours in presence of compound
Description: as §1, §2

[4] = test system: K562; assay: Cell proliferation assay, K562 (leukemia); conditions: Homo sapiens, 72 hours in presence of compound
Description: as §1, §2

[5] = test system: CXF 243; assay: Clonogenic assay, CXF 243; conditions: Homo sapiens, Colon, Adenocarcinoma, soft agar, read-out: IC50 (colony formation)
Description: (§3) The anticancer activity of (R)-2-amino-7-[2-(6-methoxy-pyridin-2-yl)-phenyl]-4-methyl-7,8-dihydro-6H-pyrido[4,3-d]pyrimidin-5-one is evaluated in 30 human tumor xenografts in vitro using a clonogenic assay. In this assay, human cells derived from cancer patients are evaluated for the capacity of (R)-2-amino-7-[2-(6-methoxy-pyridin-2-yl)-phenyl]-4-methyl-7,8-dihydro-6H-pyrido[4,3-d]pyrimidin-5-one to inhibit the formation of 3 dimensional colonies. […] The tumor xenografts which have never been cultured in cell culture plastic dishes are isolated from nude mice. Tumor cell suspensions are prepared and incubated in 24 well plates containing layers of soft agar. Under these conditions a special subpopulation of cells selectively grows to colonies. (R)-2-amino-7-[2-(6-methoxy-pyridin-2-yl)-phenyl]-4-methyl-7,8-dihydro-6H-pyrido[4,3-d]pyrimidin-5one is tested in 6 concentrations up to 1000 nM. The tumor test panel comprises 1 to 10 models of 12 different human tumor types, which were bladder cancer, colon, gastric, non small cell lung (adeno, squamous cell, and large cell), small cell lung, mammary, ovary, and prostate cancer, as well as leukemia, lymphoma, melanoma, and sarcoma. Antitumor effects are recorded as inhibition of colony formation in relation to untreated controls. […]

[6] = test system: GXF 1172; assay: Clonogenic assay, GXF 1172; conditions: Homo sapiens, Stomach, Signet-ring cell carcinoma, soft agar, read-out: IC50 (colony formation)
Description: as §3

[7] = test system: GXF 209; assay: Clonogenic assay, GXF 209; conditions: Homo sapiens, Stomach, Signet-ring cell carcinoma, soft agar, read-out: IC50 (colony formation)
Description: as §3

[8] = test system: LEXF CCRFCEM; assay: Clonogenic assay, LEXF CCRFCEM; conditions: Homo sapiens, CCRF-CEM, Leukemia, ALL, T lymphoblast, soft agar, read-out: IC50 (colony formation)
Description: as §3

[9] = test system: LEXF K562; assay: Clonogenic assay, LEXF K562; conditions: Homo sapiens, Chronic myelogenous leukemia, soft agar, read-out: IC50 (colony formation)
Description: as §3

[10] = test system: LXFA 1012; assay: Clonogenic assay, LXFA 1012; conditions: Homo sapiens, Lung, non-small cell, Adenocarcinoma, soft agar, read-out: IC50 (colony formation)
Description: as §3

[11] = test system: LXFA 677; assay: Clonogenic assay, LXFA 677; conditions: Homo sapiens, Lung, non-small cell, Adenocarcinoma, soft agar, read-out: IC50 (colony formation)
Description: as §3

[12] = test system: LXFA 737; assay: Clonogenic assay, LXFA 737; conditions: Homo sapiens, Lung, non-small cell, Adenocarcinoma, soft agar, read-out: IC50 (colony formation)
Description: as §3

[13] = test system: LXFE 1422; assay: Clonogenic assay, LXFE 1422; conditions: Homo sapiens, Lung, non-small cell, Squamous cell carcinoma, soft agar, read-out: IC50 (colony formation)
Description: as §3

[14] = test system: LXFE 211; assay: Clonogenic assay, LXFE 211; conditions: Homo sapiens, Lung, non-small cell, Squamous cell carcinoma, soft agar, read-out: IC50 (colony formation)
Description: as §3

[15] = test system: LXFL 1176; assay: Clonogenic assay, LXFL 1176; conditions: Homo sapiens, Lung, non-small cell, Mucous large cell lung carcinoma, soft agar, read-out: IC50 (colony formation)
Description: as §3

[16] = test system: MAXF 401; assay: Clonogenic assay, MAXF 401; conditions: Homo sapiens, MAXF401, Breast, Pap. adenocarcinoma, soft agar, read-out: IC50 (colony formation)
Description: as §3

[17] = test system: MAXF 574; assay: Clonogenic assay, MAXF 574; conditions: Homo sapiens, Breast, Carcinoma, soft agar, read-out: IC50 (colony formation)
Description: as §3

[18] = test system: MAXF 857; assay: Clonogenic assay, MAXF 857; conditions: Homo sapiens, Breast, Invasive ductal carcinoma, soft agar, read-out: IC50 (colony formation)
Description: as §3

[19] = test system: PRXF DU145; assay: Clonogenic assay, PRXF DU145; conditions: Homo sapiens, DU-145, Prostate, Adenocarcinoma, soft agar, read-out: IC50 (colony formation)
Description: as §3

[20] = test system: SXF 1186; assay: Clonogenic assay, SXF 1186; conditions: Homo sapiens, Sarcoma, Osteoblastic osteosarcoma, soft agar, read-out: IC50 (colony formation)
Description: as §3

GI50 [3]: 6 nM | GI50 [4]: 24 nM | pIC50 [5]: 7.36 | pIC50 [6]: 7.37 | pIC50 [7]: 7.55 | pIC50 [8]: 7.57 | pIC50 [9]: 7.89 | pIC50 [10]: < 6.00 | pIC50 [11]: 7.57 | pIC50 [12]: 7.59 | pIC50 [13]: 7.70 | pIC50 [14]: 9.12 | pIC50 [15]: 7.68 | pIC50 [16]: 7.82 | pIC50 [17]: 6.50 | pIC50 [18]: 7.92 | pIC50 [19]: 7.77 | pIC50 [20]: 7.68
Compound: COc1cccc(-c2ccccc2[C@H]2Cc3nc(N)nc(C)c3C(=O)N2)n1 [(R)-2-amino-7-[2-(6-methoxy-pyridin-2-yl)-phenyl]-4-methyl-7,8-dihydro-6H-pyrido[4,3-d]pyrimidin-5-one]
GI50 [1]: 18 nM | GI50 [2]: 12 nM

Reference: US20130045983A1, “HSP90 INHIBITORS FOR THERAPEUTIC TREATMENT” (Novartis AG, priority 2008, published 2013)
